Laboratory results published in patent US9926276B2, “Substituted benzamides with activity towards EP4 receptors” (DRACONIS PHARMA, S.L., priority 2013, dated 2018).

What was measured:
human EP4 receptor [1] = molecular target: T1, human EP4 receptor (Homo sapiens, UniProt P35408); test: Measurement of cAMP responses by Homogeneous Time Resolved Fluorescence (Test 2); assay type: cell-based; parameters: expressed in transfected cells; conditions: for Results of Test 2 (Functional assay, antagonist % inh): at 10 μM, PGE2 1 nM, HEK-293 cells stably expressing human EP4; for inhibition at 10 µM: HEK293, PGE2 1 nM, HEK-293 cells stably expressing human EP4, read-out: Results of Test 2 (Functional assay, antagonist % inh)
T1 sequence (P35408 whole entry): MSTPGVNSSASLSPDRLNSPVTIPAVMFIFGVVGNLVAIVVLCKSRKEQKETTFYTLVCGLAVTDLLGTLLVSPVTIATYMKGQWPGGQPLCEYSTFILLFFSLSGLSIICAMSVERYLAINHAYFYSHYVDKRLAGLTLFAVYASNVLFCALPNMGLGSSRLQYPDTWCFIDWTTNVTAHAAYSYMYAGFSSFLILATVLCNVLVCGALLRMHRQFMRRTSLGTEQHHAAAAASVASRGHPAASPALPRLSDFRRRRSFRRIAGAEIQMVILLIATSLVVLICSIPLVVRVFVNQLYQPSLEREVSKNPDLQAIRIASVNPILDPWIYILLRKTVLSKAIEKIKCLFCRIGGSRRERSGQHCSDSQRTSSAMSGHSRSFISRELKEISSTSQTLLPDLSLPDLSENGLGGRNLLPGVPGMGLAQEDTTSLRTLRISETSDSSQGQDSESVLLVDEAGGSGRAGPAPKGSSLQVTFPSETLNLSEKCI
Description: Test 2: Measurement of cAMP Responses by Homogeneous Time Resolved Fluorescence
cAMP measurements on HEK-293 cells that stably expressed human EP4 receptors were performed by using a system based on Homogeneous Time Resolved Fluorescense (HTRF). This technology allows the direct measurement of cAMP in living cells. The principle of this assay is based on competition between cAMP produced by cells and cAMP-d2 conjugate for the binding with monoclonal anti-cAMP-cryptate conjugate. The HTRF cAMP kit from CisBio was used according to the manufacturer's directions. The experimental procedure was performed as stated below.
Suspended cells (30,000 cells per well) were added to 96-well culture plates in 30 μl of Optimem supplemented with 500 μM IBMX. Compounds were then added in 10 μl of stimulation buffer and incubated at 25° C. for 30 minutes followed by 10 μl of PGE2 to a final concentration of 1 nM. After 30 minutes at 25° C., the reaction was stopped lysing the cells with a mixture of 25 μl of cryptate and 25 μl of cAMP-d2 prepared in the lysis buffer supplied by the manufacturer. Plates were incubated for an additional hour at room temperature and read at 665 nm/620 nm using an UltraEvolution Plate reader (Tecan).
Antagonist percentage inhibition was calculated relating compounds activity to the 0% inhibition of the wells incubated with 1 nM PGE2 alone and 100% inhibition of the wells incubated with 1 nM PGE2 plus 1 μM of the reference antagonist.

human EP4 receptor [2] = molecular target: T1, human EP4 receptor; test: Human EP4 receptor radioligand binding assay (Test 1); parameters: expressed in transfected cells; host or cells: HEK-293 cell membranes; conditions: [3H]-PGE2 1 nM, transfected HEK-293 cell membranes; for Results of Test 1 (Binding assay, % inh): at 10 μM; for inhibition at 10 µM: read-out: Results of Test 1 (Binding assay, % inh)
Description: Test 1: Human EP4 Receptor Radioligand Binding Assay
To investigate binding properties of EP4 receptor ligands to human EP4 receptor, transfected HEK-293 cell membranes and [3H]-PGE2 (Perkin Elmer) were used. In 96-well plates the assay was carried out with a total reaction volume of 250 μl, containing 25 μl of membrane suspension (30 μg protein/well), 25 μl of [3H]-PGE2 (1 nM) in either absence or presence of 25 μl of either buffer or PGE2 (10 μM) for total and non-specific binding, respectively. Binding buffer contained 25 mM MES, 10 mM MgCl2 and 1 mM EDTA at pH 6.0. Plates were incubated at 25° C. for 120 minutes. After the incubation period, 200 μl of incubate were transferred to MultiScreen HTS, FB plates (Millipore), filtered and plates were washed 6 times with ice-cold 10 mM MES, 0.01% BSA at pH 6.0. Filters were dried and counted in a MicroBeta scintillation counter (Perkin-Elmer) using EcoScint liquid scintillation cocktail.
Percentage inhibition was calculated relating compounds activity to the 0% inhibition of the wells incubated with 1 nM [3H]-PGE2 alone (total binding) and 100% inhibition of the wells incubated with 1 nM [3H]-PGE2 plus 10 μM PGE2 (non-specific binding).

| inhibition at 10 µM (human EP4 receptor [1]) [%] | inhibition at 10 µM (human EP4 receptor [2]) [%] | SMILES | Results of Test 2 (Functional assay, antagonist % inh) (human EP4 receptor [1]) | Results of Test 1 (Binding assay, % inh) (human EP4 receptor [2]) |
| --- | --- | --- | --- | --- |
|  |  | O=C(O)c1cc(Cl)c(NC(=O)c2cc(-c3cccc(Cl)c3)ccc2Cl)c(Cl)c1 [Example 19, 3,5-Dichloro-4-(3′,4-dichlorobiphenyl-3-ylcarboxamido)benzoic acid] | $ (% inh >75) | # (% inh >75) |
|  |  | Cc1ccc(-c2cccc(C#N)c2)cc1C(=O)Nc1c(C)cc(C(=O)O)cc1C [Example 5, 4-(3′-Cyano-4-methylbiphenyl-3-ylcarboxamido)-3,5-dimethylbenzoic acid] | $ (% inh >75) | # (% inh >75) |
|  |  | COc1cc(Cl)cc(-c2ccc(C)c(C(=O)Nc3c(C)cc(C(=O)O)cc3C)c2)c1 [Example 59, 4-(3′-Chloro-5′-methoxy-4-methylbiphenyl-3-ylcarboxamido)-3,5-dimethylbenzoic acid] | $ (% inh >75) | # (% inh >75) |
|  |  | Cc1ccc(-c2cccc(Cl)c2)cc1C(=O)Nc1c(Cl)cc(C(=O)O)cc1Cl [Example 15, 3,5-Dichloro-4-(3′-chloro-4-methylbiphenyl-3-ylcarboxamido)benzoic acid] | $ (% inh >75) | # (% inh >75) |
|  |  | Cc1ccc(-c2cccc(C(F)(F)F)c2)cc1C(=O)Nc1c(C)cc(C(=O)[O-])cc1C.[Na+] [Example 58, Sodium 3,5-dimethyl-4-(4-methyl-3′-(trifluoromethyl)biphenyl-3-ylcarboxamido)benzoate] | $ (% inh >75) | # (% inh >75) |
|  |  | COc1cccc(-c2ccc(C)c(C(=O)Nc3c(Cl)cc(C(=O)O)cc3Cl)c2)c1 [Example 8, 3,5-Dichloro-4-(3′-methoxy-4-methylbiphenyl-3-ylcarboxamido)benzoic acid] | $ (% inh >75) | # (% inh >75) |
|  |  | Cc1ccc(-c2cccc(C(N)=O)c2)cc1C(=O)Nc1c(C)cc(C(=O)O)cc1C [Example 13, 4-(3′-Carbamoyl-4-methylbiphenyl-3-ylcarboxamido)-3,5-dimethylbenzoic acid] | $ (% inh >75) | # (% inh >75) |
| > 75 | > 75 | Cc1cc(C(=O)O)cc(Cl)c1NC(=O)c1nc(-c2cccc(Cl)c2)ccc1Cl [Example 48, 3-Chloro-4-(3-chloro-6-(3-chlorophenyl)-picolinamido)-5-methylbenzoic acid] |  |  |
|  |  | CC(C)c1ccc(C(=O)O)cc1NC(=O)c1cc(-c2cccc(Cl)c2)ccc1Cl [Example 46, 3-(3′,4-Dichlorobiphenyl-3-ylcarboxamido)-4-isopropylbenzoic acid] | $ (% inh >75) | # (% inh >75) |
|  |  | Cc1ccc(-c2cccc(F)c2)cc1C(=O)Nc1c(C)cc(C(=O)O)cc1C [Example 4, 4-(3′-Fluoro-4-methylbiphenyl-3-ylcarboxamido)-3,5-dimethylbenzoic acid] | $ (% inh >75) | # (% inh >75) |
|  |  | COc1cccc(-c2ccc(Cl)c(C(=O)Nc3c(Cl)cc(C(=O)O)cc3Cl)c2)c1 [Example 17, 3,5-Dichloro-4-(4-chloro-3′-methoxybiphenyl-3-ylcarboxamido)benzoic acid] | $ (% inh >75) | # (% inh >75) |
|  |  | Cc1cc(C(=O)O)cc(C)c1NC(=O)c1cc(-c2cccc(Cl)c2)ccc1Cl [Example 14, 4-(3′,4-Dichlorobiphenyl-3-ylcarboxamido)-3,5-dimethylbenzoic acid] | $ (% inh >75) | # (% inh >75) |
|  |  | COc1ccc(F)c(-c2ccc(C)c(C(=O)Nc3c(C)cc(C(=O)O)cc3C)c2)c1 [Example 12, 4-(2′-fluoro-5′-methoxy-4-methylbiphenyl-3-ylcarboxamido)-3,5-dimethylbenzoic acid] | $ (% inh >75) | # (% inh >75) |
|  |  | Cc1ccc(-c2cccc(Cl)c2)cc1C(=O)Nc1cc(C(=O)O)ccc1C(C)C [Example 45, 3-(3′-Chloro-4-methylbiphenyl-3-ylcarboxamido)-4-isopropylbenzoic acid] | $ (% inh >75) | # (% inh >75) |
|  |  | O=C(O)c1cc(Cl)c(NC(=O)c2cc(-c3cccc(CO)c3)ccc2Cl)c(Cl)c1 [Example 16, 3,5-Dichloro-4-(4-chloro-3′-(hydroxymethyl)biphenyl-3-ylcarboxamido)benzoic acid] | $ (% inh >75) | # (% inh >75) |
| > 75 | > 75 | O=C(O)c1cc(Cl)c(NC(=O)c2nc(-c3cccc(Cl)c3)ccc2Cl)c(Cl)c1 [Example 47, 3,5-Dichloro-4-(3-chloro-6-(3-chlorophenyl)picolinamido)benzoic acid] |  |  |
|  |  | Cc1ccc(-c2cccc(CO)c2)cc1C(=O)Nc1c(C)cc(C(=O)O)cc1C [Example 9, 4-(3′-(Hydroxymethyl)-4-methylbiphenyl-3-ylcarboxamido)-3,5-dimethylbenzoic acid] | $ (% inh >75) | # (% inh >75) |
|  |  | Cc1cc(C(=O)O)cc(C)c1NC(=O)c1cc(-c2cccc(CO)c2)ccc1Cl [Example 2, 4-(4-Chloro-3′-(hydroxymethyl)biphenyl-3-ylcarboxamido)-3,5-dimethylbenzoic acid] | $ (% inh >75) | # (% inh >75) |
| > 75 | > 75 | Cc1cc(C(=O)O)cc(C)c1NC(=O)c1nc(-c2cccc(Cl)c2)ccc1Cl [Example 23, 4-(3-Chloro-6-(3-chlorophenyl)picolinamido)-3,5-dimethylbenzoic acid] |  |  |
| > 75 | > 75 | O=C(O)c1cc(Cl)c(NC(=O)c2cc(OCc3ccc(Cl)cc3F)ccc2Cl)c(Cl)c1 [Example 36, 3,5-Dichloro-4-(2-chloro-5-(4-chloro-2-fluorobenzyloxy)benzamido)benzoic acid] |  |  |
|  |  | Cc1ccc(-c2cccc(C#N)c2)cc1C(=O)Nc1c(Cl)cc(C(=O)O)cc1Cl [Example 7, 3,5-Dichloro-4-(3′-cyano-4-methylbiphenyl-3-ylcarboxamido)benzoic acid] | $ (% inh >75) | # (% inh >75) |
|  |  | COc1cccc(-c2ccc(Cl)c(C(=O)Nc3c(C)cc(C(=O)O)cc3C)c2)c1 [Example 1, 4-(4-Chloro-3′-methoxybiphenyl-3-ylcarboxamido)-3,5-dimethylbenzoic acid] | $ (% inh >75) | # (% inh >75) |
| > 75 | > 75 | O=C(O)c1cc(Cl)c(NC(=O)c2cc(OCc3ccc(F)cc3F)ccc2Cl)c(Cl)c1 [Example 35, 3,5-Dichloro-4-(2-chloro-5-(2,4-difluorobenzyloxy)benzamido)benzoic acid] |  |  |

| SMILES | inhibition at 10 µM (human EP4 receptor [1]) [%] | inhibition at 10 µM (human EP4 receptor [2]) [%] | Results of Test 2 (Functional assay, antagonist % inh) (human EP4 receptor [1]) | Results of Test 1 (Binding assay, % inh) (human EP4 receptor [2]) |
| --- | --- | --- | --- | --- |
| CC(C)COc1ccc(Cl)c(C(=O)Nc2c(Cl)cc(C(=O)O)cc2Cl)c1 [Example 25, 3,5-Dichloro-4-(2-chloro-5-isobutoxybenzamido)benzoic acid] | > 75 | > 75 |  |  |
